Measurements: patent publication US11344567B2, “Methods of treating cancer using platanoside and isomers thereof” (SHARE GAL RESEARCH AND DEVELOPMENT LTD, priority 2018, dated 2022)

How the values were obtained:
[1] = test system: HT-29 cell line; experiment: 3D spheroid tumor formation and growth; format: cell-based, human; details: for effect on growing tumors, treatment after spheroid formation: HT-29 spheroids, single dose 72 h after seeding, for additional 72 hours; for effect on tumor formation, treatment before tumor formation: 150 µM
Description: The spheroid formation potential of HT29 human colon cancer cell line was evaluated in 3D nonadherent culture condition. Initially the HT29 human cells were grown as a monolayer after which they were counted, re-suspended and plated with 1,500 cells per well in a 96-well plate pre-coated with a thin layer of 1.5% agarose (w/v) in McCoy's 5A medium containing 10% FBS and incubated at 37° C. in a humidified atmosphere of 5% CO2. Cell culture media was replaced every 2-3 days with fresh medium to remove cellular debris and the spheroids that were not well-formed. After the beginning of the multicellular tumor spheroid formation, the tested compounds were added at various concentrations (0.2, 0.4 and 0.6 mg/ml) and incubated for 24, 48 and 72 h. The number and diameter of colonies within each well were photographed and counted every day under the microscope (Olympus BX-51; Olympus, Hamburg, Germany), and the images of the representative fields were captured. Each sample was analyzed in triplicate, and all the experiments were performed three times. The viability of cells growing on the spheroids was measured by the APH (acid phosphatase) assay, which was performed according to manufacturer's instructions.
The cellular assays described above were performed in a monolayer system. Although monolayer systems partially reflect the microenvironment of cancer cells, there are currently more advanced culture methods that mimic in a better way the cellular interactions by the cells comprising the tumor (Freidrich, J. et. al.; Nat. Prot. 2009, 4, 309-324). […] This assay can be applied to test whether the compounds treatment is able of impairing tumors formation or alternately to test the effect of the treatment in growing tumors. HT-29 cell line was used for this model due to its capacity to form spheroids in vitro.

[2] = test system: leukemia; details: Dimas et al. 2000; cited from earlier work
[3] = test system: methicillin-resistant Staphylococcus aureus; details: Ibrahim et al. 2009; cited from earlier work

Compound	effect on growing tumors, treatment after spheroid formation [1]	effect on tumor formation, treatment before tumor formation [1]	further results
N.N.O=C([O-])C1(C(=O)[O-])CCC1.[Pt+2] [carboplatin]	didn't generate any effect	–	–
O=C(O)/C=C/c1ccc(O)cc1 [p-coumaric acid]	–	no effect	–
CCc1c2c(nc3ccc(OC(=O)N4CCC(N5CCCCC5)CC4)cc13)-c1cc3c(c(=O)n1C2)COC(=O)[C@]3(O)CC [irinotecan]	didn't generate any effect	–	–
C[C@@H]1O[C@@H](Oc2c(-c3ccc(O)cc3)oc3cc(O)cc(O)c3c2=O)[C@H](OC(=O)/C=C/c2ccc(O)cc2)[C@H](OC(=O)/C=C/c2ccc(O)cc2)[C@H]1O [Platanoside, platanoside]	–	–	anti-leukemic activity [2]: active as an anti-leukemic agent; anti-methicillin-resistant Staphylococcus aureus activity [3]: anti-methicillin-resistant Staphylococcus aureus
O=C1C[C@@H](c2ccc(O)cc2)Oc2cc(O)cc(O)c21 [naringenin]	–	no effect	–
